In patent US20200315960A1, “DRUG DELIVERY DEVICE AND METHOD” (BIORINGS LLC, priority 2019, published 2020):

Experiments:
human sperm = experiment: Effect of various concentrations on the motility of human sperm; assay type: cell-based; settings: for concentration shown to be spermiostatic: motility of human sperm; for spermiostatic effects: lower concentrations of albumin and dextran
From the text: The effects of various concentrations of magnesium chloride, calcium chloride, ferrous sulfate, copper sulfate, and ferrous gluconate on the motility of human sperm were studied.

[1] = Effect on viscosity of cervical mucus; settings: concentrations from 0.310% to a range of 1-2.5%

Q: For `[Ca+2].[Cl-].[Cl-]` [Calcium chloride], which “concentration shown to be spermiostatic” value (human sperm) is on record?
A: 25 mM

Q: With `O=S(=O)([O-])[O-].[Cu+2]` [Copper sulfate] as the compound, how does the immobilization of sperm (human sperm; 25 mM solutions) read?
A: 93.3%

Q: What about the “immobilization of sperm” value (human sperm; 37.5 mM solutions) of the same compound?
A: completely immobilized all the sperm

Q: What about the “concentration shown to be spermiostatic” value (human sperm) of the same compound?
A: 6.25 mM

Q: With `O=C1O[C@H]([C@@H](O)CO)C(O)=C1O` [L-ascorbic acid] as the compound, how does the “overall viscosity of the mucus” value [1] read?
A: increases in direct relationship with increasing concentrations

Q: With `[Cl-].[Cl-].[Mg+2]` [magnesium chloride] as the compound, how does the “concentration shown to be spermiostatic” value (human sperm) read?
A: 35 mM

Q: Which “concentration that completely arrested the motility of human sperm” value (human sperm; complete arrest of motility) does the source give for Ferrous sulfate here?
A: 10 mM

Q: What does the source list for albumin?
A: sperm completely immobilized (human sperm; 20% albumin): ~97%; sperm completely immobilized (human sperm; 40% albumin): ~97%; sperm motility (human sperm; albumin concentration 10%): decreased sperm motility almost close to that of 12.5 mM concentration of ferrous gluconate; spermiostatic effects (human sperm): not significant

Q: With dextran as the compound, how does the sperm immobilized (human sperm; 1.25% solution of dextran) read?
A: ~95%

Q: What about the spermiostatic effects (human sperm) of the same compound?
A: not significant

Q: What does the source list for ferrous gluconate?
A: immobilization of sperm (human sperm; 25 mM solutions): 97.4%; immobilization of sperm (human sperm; 37.5 mM solutions): completely immobilized all the sperm; concentration shown to be spermiostatic (human sperm): 12.5 mM

Q: With “ferrous gluconate [dihydrate form of ferrous gluconate]” as the compound, how does the “onset of spermiostatic effect” value (human sperm; in the presence of the dihydrate form) read?
A: immediate
